Results from patent publication EP0178388A1, “Quinolinecarboxylic acid derivatives” (KYORIN PHARMACEUTICAL CO., LTD., priority 1984, dated 1986).
Values after ≈ are worked out from the molar mass of the structure shown. Like-named read-outs stand apart in the source and are kept apart here.

Columns and labels:
P. morganii IID 602 = assay: In vitro antibacterial activity, MIC (standard strain); format: cell-based; details: Morganella morganii, IID602
[1] = tested on: Bacteroides fragilis GM 7000; assay: as above; format: cell-based; details: GM7000
[2] = tested on: B. thetaiotaomicron (0661); assay: as above; format: cell-based; details: Bacteroides thetaiotaomicron
[3] = tested on: Klebsiella pneumoniae I-220S; assay: as above; format: cell-based; details: Klebsiella pneumoniae
B. fragilis 0558 = assay: as above; format: cell-based; details: Bacteroides fragilis, 0558
K. pneumoniae KY(GN)6445 = assay: as above; format: cell-based; details: Klebsiella pneumoniae
[4] = tested on: Escherichia coli NIHJ JC-2; assay: as above; format: cell-based; details: NIHJJC2, Escherichia coli NIHJ JC-2, 10^6 cells/ml
[5] = tested on: Salmonella enteritidis IID 604; assay: as above; format: cell-based; details: Salmonella enterica
[6] = tested on: Citrobacter freundii IID 976; assay: as above; format: cell-based; details: IID976
[7] = tested on: Proteus vulgaris IFO 3167; assay: as above; format: cell-based; details: IFO3167
[8] = tested on: Yersinia enterocolitica IID 981; assay: as above; format: cell-based; details: IID981
S. pneumoniae S-4288 = assay: In vivo antibacterial activity against systemic infection in mice; set-up: species or system mice (ICR-S); details: Streptococcus pneumoniae, S4288, po, 1 h
Procedure: (§1) Experiment 2 In vivo antibacterial activity against systemic infection in mice (ICR-S)
(§2) The infections were produced by intraperitoneal infection of a suspension of the bacterial culture corresponding to the germ studied. The product was administered orally at 1 hour after the infection. The 50% effective dose (ED50) which protects 50% of the animals from death caused by the infection was determined from the relation between dosage and survival rate.

P. aeruginosa IID 1210 = assay: as above; set-up: species or system mice (ICR-S); details: Pseudomonas aeruginosa, IID1210, po, 1 h
Procedure: as §1, §2

S. aureus Smith = assay: as above; set-up: species or system mice (ICR-S); details: Staphylococcus aureus, po, 1 h
Procedure: as §1, §2

[9] = tested on: Bacillus subtilis PCI 219; assay: In vitro antibacterial activity, MIC (standard strain); format: cell-based; details: PCI219
[10] = tested on: Acinetobacter anitratus IID 876; assay: as above; format: cell-based; details: Acinetobacter calcoaceticus, IID876
E. coli ML4707 [11] = assay: In vivo antibacterial activity against systemic infection in mice;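 further: ED50 in mg/kg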; details: Escherichia coli, ML4707, po, 1 h, E. coli ML4707, mice (ICR-S), intraperitoneal infection, oral at 1 hour after infection
Procedure: as §1, §2

B. fragilis 25285 = assay: In vitro antibacterial activity, MIC (standard strain); format: cell-based; details: Bacteroides fragilis, 25285
Shigella sonnei IID 969 = assay: as above; format: cell-based; details: IID969, Shigella sonnei IID 969, 10^6 cells/ml
Procedure: (§3) The in vitro antibacterial activity has been investigated, the minimun inhibitory concentration (MIC) was determined in accordance with the method recommended by Japan Society of Chemotherapy.

C. ramosum = assay: as above; format: cell-based; details: Thomasclavelia ramosa
[12] = tested on: Pseudomonas aeruginosa V-1; assay: as above; format: cell-based; details: V1
[13] = tested on: Alcaligenes faecalis 0114002; assay: as above; format: cell-based; details: Alcaligenes faecalis 0114002, 10^6 cells/ml
[14] = tested on: C. perfringens KYA (ATCC) 13123; assay: microbe, parasite or virus in culture; format: cell-based; details: Clostridium perfringens
B. distasonis 8503 = assay: In vitro antibacterial activity, MIC (standard strain); format: cell-based; details: Parabacteroides distasonis, B. distasonis 8503, 10^6 cells/ml
[15] = tested on: Enterobacter cloacae IID 977; assay: as above; format: cell-based; details: IID977, Enterobacter cloacae IID 977, 10^6 cells/ml
P. aeruginosa IFO 12689 = assay: as above; format: cell-based; details: Pseudomonas aeruginosa, IFO12689
E. coli ATCC 10536 = assay: as above; format: cell-based; details: Escherichia coli, ATCC10536; E. coli ATCC 10536, 10^6 cells/ml, standard strain; read-out: MIC
Pst. micros UPI 5464-1 = assay: as above; format: cell-based; details: Parvimonas micra, UPI54641, Pst. micros UPI 5464-1, 10^6 cells/ml
[16] = tested on: Peptostreptococcus anaerobius KYA 27337; assay: as above; format: cell-based; details: KYA27337, Peptostreptococcus anaerobius KYA 27337, 10^6 cells/ml
[17] = tested on: S. aureus IID 670 (Terajima); assay: as above; format: cell-based; details: Staphylococcus aureus, IID670, 10^6 cells/ml
P. mirabilis IID 994 = assay: as above; format: cell-based; details: Proteus mirabilis, IID994, P. mirabilis IID 994, 10^6 cells/ml
[18] = tested on: Staphylococcus aureus 209 P; assay: as above; format: cell-based; details: 10^6 cells/ml, read-out: MIC
[19] = tested on: Serratia marcescens IID 618; assay: as above; format: cell-based; details: IID618, Serratia marcescens IID 618, 10^6 cells/ml, read-out: MIC
[20] = tested on: Veillonella parvula KYA 10790; assay: as above; format: cell-based; details: KYA10790, Veillonella parvula KYA 10790, 10^6 cells/ml
S. epidermidis IID 866 = assay: as above; format: cell-based; details: Staphylococcus epidermidis, IID866, S. epidermidis IID 866, 10^6 cells/ml
[21] = tested on: F. varium KYA (ATCC) 8501; assay: as above; format: cell-based; details: Fusobacterium varium, F. varium KYA (ATCC) 8501, 10^6 cells/ml
E. coli ML4707 [22] = assay: MIC against the infecting strain (Table 2); format: cell-based; details: Escherichia coli; E. coli ML4707 (Table 2, parts 1 and 2)
Procedure: as §3

[23] = tested on: Clostridium difficile I-E; assay: In vitro antibacterial activity, MIC (standard strain); format: cell-based; details: Clostridioides difficile, 10^6 cells/ml

## O=C(O)c1cn(C2CC2)c2cc(N3CCNCC3)c(F)cc2c1=O [CFLX, 1-Cyclopropyl-6-fluoro-1,4-dihydro-4-oxo-7-(1-piperazinyl)-quinoline-3-carboxylic acid, reference compound]
P. morganii IID 602
  MIC: 0.05 µg/mL (≈ 0.151 µM)
[1]; Bacteroides fragilis
  MIC: 3.13 µg/mL (≈ 9.45 µM)
[2]
  MIC: 3.13 µg/mL (≈ 9.45 µM)
[3]
  MIC: 0.05 µg/mL (≈ 0.151 µM)
B. fragilis 0558
  MIC: 3.13 µg/mL (≈ 9.45 µM)
K. pneumoniae KY(GN)6445
  MIC: 0.025 µg/mL (≈ 0.0754 µM)
[4]
  MIC: ≤ 0.006 µg/mL
[5]
  MIC: 0.025 µg/mL (≈ 0.0754 µM)
[6]; Citrobacter freundii
  MIC: ≤ 0.006 µg/mL
[7]; Proteus vulgaris
  MIC: ≤ 0.006 µg/mL
[8]; Yersinia enterocolitica
  MIC: 0.05 µg/mL (≈ 0.151 µM)
S. pneumoniae S-4288
  ED50: > 100 mg/kg
P. aeruginosa IID 1210
  ED50: 8 mg/kg
S. aureus Smith
  ED50: 12.8 mg/kg
[9]; Bacillus subtilis
  MIC: 0.05 µg/mL (≈ 0.151 µM)
[10]
  MIC: 0.025 µg/mL (≈ 0.0754 µM)
E. coli ML4707 [11]; challenge dose 6.0 x 10^6 cfu/mouse (part 1)
  ED50: 0.67 mg/kg
E. coli ML4707 [11]; challenge dose 8.3 x 10^6 cfu/mouse (part 2)
  ED50: 0.75 mg/kg
B. fragilis 25285
  MIC: 3.13 µg/mL (≈ 9.45 µM)
Shigella sonnei IID 969
  MIC: ≤ 0.006 µg/mL
C. ramosum
  MIC: 3.13 µg/mL (≈ 9.45 µM)
[12]; Pseudomonas aeruginosa
  MIC: 0.2 µg/mL (≈ 0.604 µM)

## CC1CN(c2c(F)cc3c(=O)c(C(=O)O)cn(C4CC4)c3c2F)CC(C)N1 (stereo not drawn) [Example 4, 1-Cyclopropyl-6,8-difluoro-1,4-dihydro-7-(3,5-dimethyl-l-piperazinyl)-4-oxoquinoline-3-carboxylic acid]
P. morganii IID 602; P. morganii IID 602, 10^6 cells/ml, standard strain, read-out: MIC
  MIC: 0.1 µg/mL (≈ 0.265 µM)
[1]; Bacteroides fragilis GM 7000, 10^6 cells/ml, standard strain, read-out: MIC
  MIC: 3.13 µg/mL (≈ 8.29 µM)
[13]
  MIC: 0.2 µg/mL (≈ 0.53 µM)
[2]; B. thetaiotaomicron (0661), 10^6 cells/ml, standard strain, read-out: MIC
  MIC: 6.25 µg/mL (≈ 16.6 µM)
[14]
  MIC: 1.56 µg/mL (≈ 4.13 µM)
B. distasonis 8503
  MIC: 3.13 µg/mL (≈ 8.29 µM)
[15]
  MIC: 0.05 µg/mL (≈ 0.132 µM)
B. fragilis 0558
  MIC: 1.56 µg/mL (≈ 4.13 µM)
K. pneumoniae KY(GN)6445; K. pneumoniae KY(GN)6445, 10^6 cells/ml, standard strain, read-out: MIC
  MIC: 0.025 µg/mL (≈ 0.0662 µM)
[4]
  MIC: ≤ 0.025 µg/mL
P. aeruginosa IFO 12689
  MIC: 1.56 µg/mL (≈ 4.13 µM)
E. coli ATCC 10536
  MIC: ≤ 0.006 µg/mL
[5]; Salmonella enteritidis IID 604, 10^6 cells/ml, standard strain, read-out: MIC
  MIC: 0.05 µg/mL (≈ 0.132 µM)
[6]; Citrobacter freundii IID 976, 10^6 cells/ml, standard strain, read-out: MIC
  MIC: 0.025 µg/mL (≈ 0.0662 µM)
[7]; Proteus vulgaris IFO 3167, 10^6 cells/ml, standard strain, read-out: MIC
  MIC: 0.025 µg/mL (≈ 0.0662 µM)
Pst. micros UPI 5464-1
  MIC: 0.39 µg/mL (≈ 1.03 µM)
[16]
  MIC: 3.13 µg/mL (≈ 8.29 µM)
[17]
  MIC: 0.2 µg/mL (≈ 0.53 µM)
[8]; Yersinia enterocolitica IID 981, 10^6 cells/ml, standard strain, read-out: MIC
  MIC: 0.1 µg/mL (≈ 0.265 µM)
P. mirabilis IID 994
  MIC: 0.1 µg/mL (≈ 0.265 µM)
[9]; Bacillus subtilis PCI 219, 10^6 cells/ml, standard strain, read-out: MIC
  MIC: 0.05 µg/mL (≈ 0.132 µM)
[18]
  MIC: 0.2 µg/mL (≈ 0.53 µM)
[19]
  MIC: 0.1 µg/mL (≈ 0.265 µM)
[10]; Acinetobacter anitratus IID 876, 10^6 cells/ml, standard strain, read-out: MIC
  MIC: 0.006 µg/mL (≈ 0.0159 µM)
E. coli ML4707 [11]; challenge dose 6.0 x 10^6 cfu/mouse (part 1), read-out: ED50
  ED50: 0.13 mg/kg
[20]
  MIC: 0.39 µg/mL (≈ 1.03 µM)
S. epidermidis IID 866
  MIC: 0.39 µg/mL (≈ 1.03 µM)
[21]
  MIC: 12.5 µg/mL (≈ 33.1 µM)
B. fragilis 25285
  MIC: 1.56 µg/mL (≈ 4.13 µM)
Shigella sonnei IID 969
  MIC: 0.0125 µg/mL (≈ 0.0331 µM)
[12]; Pseudomonas aeruginosa V-1, 10^6 cells/ml, standard strain, read-out: MIC
  MIC: 0.39 µg/mL (≈ 1.03 µM)
E. coli ML4707 [22]
  MIC: 0.0125 µg/mL (≈ 0.0331 µM)
[23]
  MIC: 12.5 µg/mL (≈ 33.1 µM)
